# Molecular target: T1, IDO (SKOV3 human ovarian adenocarcinoma cells, IFN-γ induced) (Homo sapiens, UniProt P14902)
# T1 construct: IDO expression was induced in the SKOV3 cells by the addition of 500 ng/ml IFN-γ; endogenous in cells; host or cells: SKOV3 human ovarian adenocarcinoma cells, induced with IFN-γ
# Assay: SKOV3 Kynurenine cell based assay
# Settings: IDO induced by 500 ng/ml IFN-γ, 500 μM L-tryptophan, 48 hours
# Protocol: (§1) Exemplary compounds of the invention were prepared, and tested to determine their effect as TDO and/or IDO inhibitors. Two different assays were employed: 1. a cell-based assay for detecting the effect of test compounds on kynurenine production in two different cancer cell types. This assay utilised cancer cells which expressed either TDO or IDO and as such was used as a means of testing compound activity at these two enzymes in a cell-based context. 2. a TDO and IDO biochemical coupled assay which utilised recombinantly produced and purified TDO and IDO enzymes in combination with the enzyme formamidase. This coupled enzyme system allowed conversion of N-formylkynurenine produced by TDO or IDO activity to kynurenine which was then quantified by fluorescence following addition of Erhlich's Reagent The protocols for these are set out below.
# (§2) A172 (human glioblastoma) and SKOV3 (human ovarian adenocarcinoma) cells were seeded in a 96 well plate at 30,000 or 40,000 cells per well respectively in phenol red-free RPMI supplemented with 10% FCS, 2 mM L-glutamine and 500 μM L-tryptophan. IDO expression was induced in the SKOV3 cells by the addition of 500 ng/ml IFN-γ. Cells were incubated at 37° C. with or without the addition of test compound. After 48 hours, the cells were removed by centrifugation and Erhlich's reagent was added to the supernatant.
# T1 sequence (P14902 whole entry): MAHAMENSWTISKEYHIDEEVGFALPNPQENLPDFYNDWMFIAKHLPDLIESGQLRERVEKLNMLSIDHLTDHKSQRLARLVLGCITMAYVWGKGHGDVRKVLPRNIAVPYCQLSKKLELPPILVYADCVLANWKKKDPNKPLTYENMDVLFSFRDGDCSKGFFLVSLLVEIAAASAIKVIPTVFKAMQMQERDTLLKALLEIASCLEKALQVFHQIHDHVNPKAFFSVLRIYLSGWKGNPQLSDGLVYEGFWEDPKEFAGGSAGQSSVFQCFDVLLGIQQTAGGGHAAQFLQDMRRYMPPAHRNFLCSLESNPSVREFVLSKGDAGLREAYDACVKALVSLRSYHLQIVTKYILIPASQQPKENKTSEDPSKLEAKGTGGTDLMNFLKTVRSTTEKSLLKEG
row,SMILES,SKOV3 Kynurenine cell based assay pIC50
1,CC(=O)N1CC=C(c2c[nH]c3c(Cl)cccc23)CC1 [Compound 196],+ (+ = pIC50 4.00-4.99)
2,CS(=O)(=O)N1CCC(C2C(=O)Nc3ccc(Cl)cc32)CC1 (centres unmarked) [Compound 294],++ (++ = pIC50 5.00-5.99)
3,CS(=O)(=O)N1CC=C(c2c[nH]c3cc(F)c(Cl)cc23)CC1 [Compound 248],+ (+ = pIC50 4.00-4.99)
4,CS(=O)(=O)N1CCC(=C2C(=O)Nc3ccc(Br)cc32)CC1 [Compound 305],+ (+ = pIC50 4.00-4.99)
5,CS(=O)(=O)N1CCC(C2C(=O)Nc3ccc(Br)cc32)CC1 (centres unmarked) [Compound 306],++ (++ = pIC50 5.00-5.99)
6,CC(=O)N1CC=C(c2c[nH]c3cc(C#N)ccc23)CC1 [Compound 214],+ (+ = pIC50 4.00-4.99)
7,CS(=O)(=O)N1CCCN(c2c[nH]c3ccccc23)CC1 [Compound 302],+ (+ = pIC50 4.00-4.99)
8,CS(=O)(=O)N1CCC(c2c[nH]c3cc(OCc4ccccc4)ccc23)CC1 [Compound 222],+ (+ = pIC50 4.00-4.99)
9,CC(=O)N1CCC(c2c(C)[nH]c3ccccc23)CC1 [Compound 195],+ (+ = pIC50 4.00-4.99)
10,CS(=O)(=O)N1CCC(C2C(=O)Nc3ccc(C(F)(F)F)cc32)CC1 (centres unmarked) [Compound 310],+ (+ = pIC50 4.00-4.99)
11,CS(=O)(=O)N1CCC(c2c[nH]c3c(Cl)cccc23)CC1 [Compound 235],+ (+ = pIC50 4.00-4.99)
12,CS(=O)(=O)N1CCC(C2C(=O)Nc3ccc(C#N)cc32)CC1 (centres unmarked) [Compound 312],+ (+ = pIC50 4.00-4.99)

# Second part, the compound after the results:
row,SKOV3 Kynurenine cell based assay pIC50,SMILES
1,+ (+ = pIC50 4.00-4.99),CC(=O)N1CCC(c2c[nH]c3cnccc23)CC1 [Compound 203]
2,+ (+ = pIC50 4.00-4.99),O=S(=O)(N1CCCC1)N1CCC(c2c[nH]c3ccccc23)CC1 [Compound 213]
3,+ (+ = pIC50 4.00-4.99),CCCc1cc(C(=O)N2CCC(c3c[nH]c4cc(F)ccc34)CC2)[nH]n1 [Compound 277]
4,+ (+ = pIC50 4.00-4.99),CC(=O)N1CCC(c2c[nH]c3cc(C(F)(F)F)ccc23)CC1 [Compound 232]
5,+ (+ = pIC50 4.00-4.99),Cc1ccc2c(C3CCN(S(C)(=O)=O)CC3)c[nH]c2c1 [Compound 207]
6,+ (+ = pIC50 4.00-4.99),O=S(=O)(Cc1ccccc1)N1CCC(c2c[nH]c3cc(F)ccc23)CC1 [Compound 293]
7,+ (+ = pIC50 4.00-4.99),CCN(CC)C(=O)N1CCC(c2c[nH]c3ccccc23)CC1 [Compound 211]
8,+ (+ = pIC50 4.00-4.99),CC(=O)N1CCC(c2c[nH]c3cc(Cl)c(F)cc23)CC1 [Compound 242]

# Molecular target: T2, TDO (A172 human glioblastoma cells) (Homo sapiens, UniProt P48775)
# T2 construct: This assay utilised cancer cells which expressed either TDO or IDO; endogenous in cells; host or cells: A172 human glioblastoma cells
# T2 sequence (P48775 whole entry): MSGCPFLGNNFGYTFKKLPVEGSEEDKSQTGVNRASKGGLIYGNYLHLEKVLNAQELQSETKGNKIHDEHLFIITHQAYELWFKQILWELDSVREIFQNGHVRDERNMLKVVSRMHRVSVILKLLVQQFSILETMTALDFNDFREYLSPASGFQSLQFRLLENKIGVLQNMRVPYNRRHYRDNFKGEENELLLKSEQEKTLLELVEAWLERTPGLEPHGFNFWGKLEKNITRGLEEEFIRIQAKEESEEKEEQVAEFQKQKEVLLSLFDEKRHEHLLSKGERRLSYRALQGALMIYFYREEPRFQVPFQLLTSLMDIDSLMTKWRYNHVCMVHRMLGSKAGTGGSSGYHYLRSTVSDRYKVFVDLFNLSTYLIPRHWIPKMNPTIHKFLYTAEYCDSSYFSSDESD
# Assay: A172 Kynurenine cell based assay
# Settings: 500 μM L-tryptophan, 48 hours, kynurenine by Erhlich's reagent
# Protocol: as §1
# as §2, with “supernatant. The Erhlich's reagent was incubated for 5 minutes before the absorbance was read at 490 nm.” for “supernatant.”
row,SMILES,A172 Kynurenine cell based assay pIC50
1,CC(=O)N1CCN(c2c[nH]c3ccccc23)CC1C (centres unmarked) [Compound 298],++ (++ = pIC50 5.00-5.99)
2,CC(=O)N1CC=C(c2c[nH]c3c(Cl)cccc23)CC1 [Compound 196],+ (+ = pIC50 4.00-4.99)
3,CS(=O)(=O)N1CC=C(c2c[nH]c3cc(C(F)(F)F)ccc23)CC1 [Compound 224],+ (+ = pIC50 4.00-4.99)
4,CS(=O)(=O)N1CC=C(c2c[nH]c3cc(F)c(Cl)cc23)CC1 [Compound 248],++ (++ = pIC50 5.00-5.99)
5,O=C1NCC2CN(c3c[nH]c4ccccc34)CCN12 (centres unmarked) [Compound 307],++ (++ = pIC50 5.00-5.99)
6,CCNS(=O)(=O)N1CCC(c2c[nH]c3ccccc23)CC1 [Compound 258],+ (+ = pIC50 4.00-4.99)
7,CS(=O)(=O)N1CCC(c2c[nH]c3c(F)cccc23)CC1 [Compound 194],+ (+ = pIC50 4.00-4.99)
8,Cc1ccc2c(C3=CCN(S(C)(=O)=O)CC3)c[nH]c2c1 [Compound 206],++ (++ = pIC50 5.00-5.99)
9,CC(=O)N1CCN(c2c[nH]c3ccccc23)CC1C#N (centres unmarked) [Compound 313],+ (+ = pIC50 4.00-4.99)
10,CC(=O)N1CC=C(c2c[nH]c3cc(F)cc(F)c23)CC1 [Compound 201],++ (++ = pIC50 5.00-5.99)
11,CN(C)S(=O)(=O)N1CCN(c2c[nH]c3ccccc23)CC1 [Compound 297],++ (++ = pIC50 5.00-5.99)
12,CS(=O)(=O)N1CCN(c2c[nH]c3ccccc23)CC1C#N (centres unmarked) [Compound 314],++ (++ = pIC50 5.00-5.99)
13,c1ccc2c(N3CCn4ncnc4C3)c[nH]c2c1 [Compound 315],+ (+ = pIC50 4.00-4.99)
14,CS(=O)(=O)N1CCC(c2c[nH]c3cc(F)cc(F)c23)CC1 [Compound 216],+ (+ = pIC50 4.00-4.99)
15,CS(=O)(=O)N1CC=C(c2c[nH]c3ccc(C#N)cc23)CC1 [Compound 230],++ (++ = pIC50 5.00-5.99)
16,CS(=O)(=O)N1CCN(c2c[nH]c3ccccc23)CC1CN (centres unmarked) [Compound 318],++ (++ = pIC50 5.00-5.99)
17,COCCNS(=O)(=O)N1CCC(c2c[nH]c3ccccc23)CC1 [Compound 219],+ (+ = pIC50 4.00-4.99)

# More lines, now with the values ahead:
row,A172 Kynurenine cell based assay pIC50,SMILES
1,+ (+ = pIC50 4.00-4.99),CC(=O)N1CCC(c2c[nH]c3cnccc23)CC1 [Compound 203]
2,+ (+ = pIC50 4.00-4.99),O=S(=O)(N1CCCC1)N1CCC(c2c[nH]c3ccccc23)CC1 [Compound 213]
3,+ (+ = pIC50 4.00-4.99),O=C(NCCO)N1CCC(c2c[nH]c3ccccc23)CC1 [Compound 226]
4,+ (+ = pIC50 4.00-4.99),CCCc1cc(C(=O)N2CCC(c3c[nH]c4cc(F)ccc34)CC2)[nH]n1 [Compound 277]
5,+ (+ = pIC50 4.00-4.99),CC(=O)N1CCC(c2c[nH]c3cc(C(F)(F)F)ccc23)CC1 [Compound 232]
6,+ (+ = pIC50 4.00-4.99),CCN1CC(C(=O)N2CCC(c3c[nH]c4cc(F)ccc34)CC2)CC1=O (centres unmarked) [Compound 268]
7,+ (+ = pIC50 4.00-4.99),Cc1ccc2c(C3CCN(S(C)(=O)=O)CC3)c[nH]c2c1 [Compound 207]
8,++ (++ = pIC50 5.00-5.99),Fc1ccc2c(C3CCN(c4cccnc4)CC3)c[nH]c2c1 [Compound 309]
9,++ (++ = pIC50 5.00-5.99),O=S(=O)(Cc1ccccc1)N1CCC(c2c[nH]c3cc(F)ccc23)CC1 [Compound 293]
10,+ (+ = pIC50 4.00-4.99),Cn1cnc(C(=O)N2CCC(c3c[nH]c4cc(F)ccc34)CC2)c1 [Compound 272]
11,+ (+ = pIC50 4.00-4.99),CC(C)C(=O)N1CCC(C(=O)N2CCC(c3c[nH]c4cc(F)ccc34)CC2)CC1 [Compound 267]
12,++ (++ = pIC50 5.00-5.99),COCC(=O)N1CCC(c2c[nH]c3cc(F)ccc23)CC1 [Compound 264]
13,+ (+ = pIC50 4.00-4.99),CC(C)C(=O)N1CCC(c2c[nH]c3cc(F)ccc23)CC1 [Compound 266]
14,+ (+ = pIC50 4.00-4.99),O=C(C1CCOC1)N1CCC(c2c[nH]c3cc(F)ccc23)CC1 (centres unmarked) [Compound 262]
15,+ (+ = pIC50 4.00-4.99),CC(=O)N1CCC(c2c[nH]c3cc(C#N)ccc23)CC1 [Compound 237]
16,+ (+ = pIC50 4.00-4.99),O=C(c1cnccn1)N1CCC(c2c[nH]c3cc(F)ccc23)CC1 [Compound 261]
17,+ (+ = pIC50 4.00-4.99),CN(C)CCNC(=O)N1CCC(c2c[nH]c3ccccc23)CC1 [Compound 246]
18,+ (+ = pIC50 4.00-4.99),O=S(=O)(N1CCOCC1)N1CCC(c2c[nH]c3ccccc23)CC1 [Compound 220]
19,+ (+ = pIC50 4.00-4.99),O=C(c1cocn1)N1CCC(c2c[nH]c3cc(F)ccc23)CC1 [Compound 274]
20,+ (+ = pIC50 4.00-4.99),Fc1ccc2c(C3CCN(c4nnn[nH]4)CC3)c[nH]c2c1 [Compound 290]
21,+ (+ = pIC50 4.00-4.99),CC(C)CN1CC(C(=O)N2CCC(c3c[nH]c4cc(F)ccc34)CC2)CC1=O (centres unmarked) [Compound 275]
22,+ (+ = pIC50 4.00-4.99),O=C(c1ccno1)N1CCC(c2c[nH]c3cc(F)ccc23)CC1 [Compound 271]
23,++ (++ = pIC50 5.00-5.99),Fc1ccc2c(C3CCN(c4ccccc4)CC3)c[nH]c2c1 [Compound 303]
24,++ (++ = pIC50 5.00-5.99),CC(=O)N1CCC(c2c[nH]c3cc(F)ccc23)CC1 [Compound 200]
25,+ (+ = pIC50 4.00-4.99),COCCNC(=O)N1CCC(c2c[nH]c3ccccc23)CC1 [Compound 212]
26,++ (++ = pIC50 5.00-5.99),O=S(=O)(c1ccccc1)N1CCC(c2c[nH]c3cc(F)ccc23)CC1 [Compound 300]
27,+ (+ = pIC50 4.00-4.99),CC(=O)N1CCC(c2c[nH]c3cc(F)cc(F)c23)CC1 [Compound 202]
28,++ (++ = pIC50 5.00-5.99),O=S(=O)(CC(F)(F)F)N1CCC(c2c[nH]c3cc(F)ccc23)CC1 [Compound 287]

# From patent publication US9931347B2, “Pharmaceutical compound” (IOmet Pharma Ltd., priority 2013, dated 2018)
